The text below walks through data of patent US20220275391A1, “METHODS OF USING ALS INHIBITOR HERBICIDES FOR CONTROL OF UNWANTED VEGETATION IN ALS INHIBITOR HERBICIDE TOLERANT BETA VULGARIS PLANTS” (priority 2010, published 2022).

One series relates to KLARINA. In words: Field trial, phytotoxicity scoring on ALS inhibitor sensitive reference variety KLARINA. The note with it: BBCH 14.
The test system of series [1] is regenerated plants from foramsulfuron tolerant cell culture (SB574TL). The series is described as follows: Greenhouse herbicide treatment of plants regenerated from the foramsulfuron tolerant cell culture. As to the method: From this clone (SB574TL), shoots were regenerated in presence of the ALS inhibitor herbicide and then the shoots were transferred to MS medium containing 0.05 mg/l Naphthalene acetic acid (NAA).
(§1) During the first 10-15 days after transfer into soil containing substrate the plants were kept in an environment with high air humidity. During and after they were weaned to normal greenhouse air humidity regimes the plants were kept in the greenhouse under artificial light (12 h) at 20+−3° C./15+−2° C. day/night temperatures.
(§2) The herbicide doses tested were equivalent to 7-70 g a.i./ha for foramsulfuron and 1-10 g a.i./ha for iodosulfuron-methyl-sodium.

Series [2] concerns sugar beet cell cultures (genotype 7T9044). The series is described as follows: Selection of sugar beet cell colonies on foramsulfuron medium. Format: cell-based, Beta vulgaris. The note with it: 3×10^−6 M of foramsulfuron in medium. From the text:
Sugar beet cell cultures were initiated from seedlings of a diploid sugar beet genotype 7T9044 (as, for example, described by Alexander Dovzhenko, PhD Thesis, Title: “Towards plastid transformation in rapeseed (Brassica napus L.) and sugarbeet (Beta vulgaris L.)”, Ludwig-Maximilians-Universität München, Germany, 2001). Callus obtained therefrom was exposed to 10^−7 M foramsulfuron. Surviving and growing cell colonies were numbered and transferred after 4-6 weeks onto fresh medium containing 3×10^−7 M of the inhibitor. One of these cell colonies was able to grow not only at this concentration of the inhibitor but even in presence of 3×10^−6 M of foramsulfuron [CAS RN 173159-57-4].

In another series the test system is wild type plants. In words: Greenhouse herbicide treatment of plants regenerated from wild type cell cultures. The note with it: lowest doses tested (range 7-70 g a.i./ha foramsulfuron, 1-10 g a.i./ha iodosulfuron-methyl-sodium, mixtures 7:1). As to the method:
as §1, §2

For the next series, the system named is SB574TL based sugar beet. The series is described as follows: Field trial, phytotoxicity scoring on homozygous SB574TL mutant sugar beet. The note with it: BBCH 14. It counts as in vivo, Beta vulgaris. The source says: Based on SB574TL, F4—F6 seeds conferring the mutant allele of the endogenous ALS gene in the homozygous state were applied for further testing.

Excerpt for KLARINA: The water quantity applied in the various applications equaled 200 l/ha. At 8, 14, 16, 17, 28, and 31 days (as indicated in the various Tables) after application (DAA) of the respective ALS inhibitor herbicide(s), the damages (phytotoxicity/phyto) on the different sugar beet plants were scored according to the scale from 0% to 100%.
In this context, “0%” means “no phytotoxicity/phyto” and “100%” means plants were completely killed.

With `COc1cc(OC)nc(NC(=O)NS(=O)(=O)c2cc(NC=O)ccc2C(=O)N(C)C)n1` [Foramsulfuron (A1-13), foramsulfuron], the “% phyto” value with KLARINA (25 g/ha, 8 days) is 85%; in the series on KLARINA (25 g/ha, 14 days), 83%; with KLARINA (25 g/ha, 28 days), 86%; with KLARINA (50 g/ha, 8 days) it was 90%; with KLARINA (50 g/ha, 14 days), 92%; in the series on KLARINA (50 g/ha, 28 days) it was 94%. In addition, in series [1] (in vivo), the “tolerance of regenerated plants to herbicide treatment” value is given as “tolerated even the highest herbicide doses”. Moreover, the “growth of selected cell colony (clone SB574TL) in presence of the inhibitor” value in series [2] was “able to grow”. The “effect of herbicide treatment on wild type plants” value in the series on wild type plants is given as “killed”.
For the compound `COC(=O)c1ccc(I)cc1S(=O)(=O)[N-]C(=O)Nc1nc(C)nc(OC)n1.[Na+]` [Iodosulfuron-methyl-sodium (A1-16), iodosulfuron-methyl-sodium], the “% phyto” value in the series on KLARINA (7 g/ha, 8 days) is 90%; in the series on KLARINA (7 g/ha, 14 days), 97%; in the series with KLARINA (7 g/ha, 28 days), 100%; with KLARINA (15 gai/ha, 8 DAA), 83%; in the series on KLARINA (15 gai/ha, 17 DAA), 98%; in the series on KLARINA (15 gai/ha, 31 DAA), 100%. The “% phyto” value with SB574TL based sugar beet (7 g/ha, 8 days) is listed as 0%; in the series on SB574TL based sugar beet (7 g/ha, 14 days), 0%; in the series on SB574TL based sugar beet (7 g/ha, 28 days) it was 0%; in the series on SB574TL based sugar beet (15 gai/ha, 8 DAA) it was 0%; with SB574TL based sugar beet (15 gai/ha, 17 DAA), 0%; in the series on SB574TL based sugar beet (15 gai/ha, 31 DAA), 0%. The “tolerance of regenerated plants to herbicide treatment” value in series [1] (highest doses tested (range 7-70 g a.i./ha foramsulfuron, 1-10 g a.i./ha iodosulfuron-methyl-sodium, mixtures in the ratio 7:1), greenhouse) is on record as “tolerated even the highest herbicide doses”. In addition, in the series on wild type plants, the “effect of herbicide treatment on wild type plants” value is listed as “killed”.
